Tests used:
[1] = target: HLA-A*03:01 complex (Homo sapiens, UniProt P04439); assay: HLA-A*03:01-peptide binding, mature dendritic cells; details: data not shown
[2] = system: CD8+ T cells from a HLA-A*03:01+ healthy donor; assay: frequency of specific CD8+ T cells in micro-culture well #136; type: cell-based, human; details: after two rounds of stimulation with DC preloaded with 50 µM peptide; CD8/IFN-γ flow cytometry
Excerpt: Cell cultures. Cells were checked for mycoplasma contamination. LCLs are human B lymphocytes immortalized with Epstein Barr virus. T2 cell line is a human T cell leukemia/B cell line hybrid defective in TAP1/TAP2 (transporter associated with antigen […]) and β1i/β5i subunits. T2 cell line and erythrocytes contain only s-proteasomes, whereas spleen and LCLs posses proteasomes carrying mainly immuno-subunits 5,6. HeLa cells were cultivated in Iscove medium supplemented with 10% FCS, 1% L-glutamine and 1% penicillin (Biochrom). The HeLa 33/2 cell line constitutively expresses the three β5i, β1i and β2i immuno-subunits. It was maintained in Iscove medium supplemented with 10% FCS, 1% L-glutamine, 1% of a combination of penicillin and streptomycin as well as 2 µg/ml puromycin and 300 µg/ml hygromycin (PAA Laboratories).
Ma-Mel63a were established from tumor metastasis after informed consent of the patient. […] In this assay TNF-α release was measured by lysis of WEHI-13 cells. The frequency of the specific CD8+ T cells present in the responsive micro-cultures was determined by intracellular double staining for CD8 and IFN-γ using flow cytometry. […]
were analyzed for their capacity to secrete TNF-α upon re-stimulation with 50 µM of the same peptide in […]
a 6 hr assay. […] TNF-α was measured […]

[QLYPEW][RTK] [gp100^mel47–52/40–42]
binding to HLA-A*03:01, mature dendritic cells [1]: confirmed the predicted binding | specific CD8+ T cells in well #136 [2]: ~ 10%
